This is an account of results in patent US20170002055A1, “Novel peptides and combination of peptides for use in immunotherapy against ovarian cancer and other cancers” (immatics biotechnologies GmbH, priority 2015, published 2017).

The test system of experiment [1] is CD8+ T cells. Kind of experiment: In vitro immunogenicity: priming of CD8+ T cells with artificial APCs loaded with peptide/MHC and anti-CD28, multimer readout. The note with it: for Wells positive [%]: HLA-A*02 restricted peptides, percentage of positive wells; for donors: HLA-A*02, percentage of positive donors; for wells: HLA-A*02, percentage of positive wells. The experiment is classed as cell-based, human. The text has this:
In order to obtain information regarding the immunogenicity of the TUMAPs of the present invention, the inventors performed investigations using an in vitro T-cell priming assay based on repeated stimulations of CD8+ T cells with artificial antigen presenting cells (aAPCs) loaded with peptide/MHC complexes and anti-CD28 antibody.
In order to perform in vitro stimulations by artificial antigen presenting cells loaded with peptide-MHC complex (pMHC) and anti-CD28 antibody, the inventors first isolated CD8+ T cells from fresh HLA-A*02 leukapheresis products via positive selection using CD8 microbeads (Miltenyi Biotec, Bergisch-Gladbach, Germany) of healthy donors obtained from the University clinics Mannheim, Germany, after informed consent.
PBMCs and isolated CD8+ lymphocytes were incubated in T-cell medium (TCM) until use consisting of RPMI-Glutamax (Invitrogen, Karlsruhe, Germany) supplemented with 10% heat inactivated human AB serum (PAN-Biotech, Aidenbach, Germany), 100 U/ml Penicillin/100 μg/ml Streptomycin (Cambrex, Cologne, Germany), 1 mM sodium pyruvate (CC Pro, Oberdorla, Germany), 20 μg/ml Gentamycin (Cambrex). 2.5 ng/ml IL-7 (PromoCell, Heidelberg, Germany) and 10 U/ml IL-2 (Novartis Pharma, Nürnberg, Germany) were also added to the TCM at this step.
Generation of pMHC/anti-CD28 coated beads, T-cell stimulations and readout was performed in a highly defined in vitro system using four different pMHC molecules per stimulation condition and 8 different pMHC molecules per readout condition.
The purified co-stimulatory mouse IgG2a anti human CD28 Ab 9.3 (Jung et al., 1987) was chemically biotinylated using Sulfo-N-hydroxysuccinimidobiotin as recommended by the manufacturer (Perbio, Bonn, Germany). Beads used were 5.6 μm diameter streptavidin coated polystyrene particles (Bangs Laboratories, Illinois, USA).
pMHC used for positive and negative control stimulations were A*0201/MLA-001 (peptide […] (SEQ ID NO. 664) from modified Melan-A/MART-1) and A*0201/DDX5-001 ([…] from DDX5, SEQ ID NO. 665), respectively.
800.000 beads/200 μl were coated in 96-well plates in the presence of 4×12.5 ng different biotin-pMHC, washed and 600 ng biotin anti-CD28 were added subsequently in a volume of 200 μl. Stimulations were initiated in 96-well plates by co-incubating […] CD8+ T cells with 2×10^5 washed coated beads in 200 μl TCM supplemented with 5 ng/ml IL-12 (PromoCell) for 3 days at 37° C. Half of the medium was then exchanged by fresh TCM supplemented with 80 U/ml IL-2 and incubating was continued for 4 days at 37° C. This stimulation cycle was performed for a total of three times. For the pMHC multimer readout using 8 different pMHC molecules per condition, a two-dimensional combinatorial coding approach was used as previously described (Andersen et al., 2012) with minor modifications encompassing coupling to 5 different fluorochromes. Finally, multimeric analyses were performed by staining the cells with Live/dead near IR dye (Invitrogen, Karlsruhe, Germany), CD8-FITC antibody clone SK1 (BD, Heidelberg, Germany) and fluorescent pMHC multimers. For analysis, a BD LSRII SORP cytometer equipped with appropriate lasers and filters was used. Peptide specific cells were calculated as percentage of total CD8+ cells. Evaluation of multimeric analysis was done using the FlowJo software (Tree Star, Oregon, USA). In vitro priming of specific multimer+ CD8+ lymphocytes was detected by comparing to negative control stimulations.

The target of experiment [2] is HLA-A*02:01 (Homo sapiens, UniProt P04439, D140Y/D185E/D98H/E176V/E277Q/G131W/G231S/I119V/I121R/I166T/I218V/L300P/L318F/N151K/N90K/P208A/P217A/Q86G/Q94H/R138H/R169H/T345S). Kind of experiment: MHC binding assay (UV-ligand exchange, β2m ELISA, peptide exchange yield). The note with it: MHC class I binding score; binding to HLA-A*02:01 ranged by peptide exchange yield (UV-ligand exchange, β2m ELISA). In short, it runs like this: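 Binding is expressed as peptide exchange yield: stabilized MHC complexes were quantified by β2m ELISA, with a 450 nm TMB read-out on streptavidin-coated plates. Complexes came from UV-ligand exchange, where UV irradiation cleaves a photolabile peptide so the candidate peptide can load.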
(In general: In an ELISA, binding on a coated surface is turned into a signal by an enzyme label.)

“2 (SLLEADPFL; listed as Homo sapiens) [compound 2]”: the “Wells positive [%]” value in experiment [1] is ““+” (<20% = +)”. Also, in experiment [2], the Peptide exchange result is given as ““+++” (≧50 = +++)”.

Regarding “3 (SLASKLTTL; listed as Homo sapiens) [compound 3]”, the “Wells positive [%]” value in experiment [1] is recorded as ““+” (<20% = +)”. For the same substance, the Peptide exchange result in experiment [2] is on record as ““++++” (≧75% = ++++)”.

On to “5 (HLTEVYPEL; listed as Homo sapiens) [compound 5]”, for which, in experiment [1], the “Wells positive [%]” value is given as ““+++” (50%-69% = +++)”. The Peptide exchange entry in experiment [2] is ““+++” (≧50 = +++)”.

With “7 (SLVGLLLYL; listed as Homo sapiens) [compound 7]”, the “Wells positive [%]” value in experiment [1] is reported as ““++” (20%-49% = ++)”. For the same substance, the Peptide exchange result in experiment [2] is ““++++” (≧75% = ++++)”.

Take “8 (FTLGNVVGMYL; listed as Homo sapiens) [compound 8]”: the “Wells positive [%]” value in experiment [1] is listed as ““+” (<20% = +)”. Besides, the Peptide exchange entry in experiment [2] was ““++++” (≧75% = ++++)”.

As for “11 (KIFEMLEGV; listed as Homo sapiens) [compound 11]”, the “Wells positive [%]” value in experiment [1] is ““+” (<20% = +)”. The Peptide exchange entry in experiment [2] is ““+++” (≧50 = +++)”.

As for “17 (GLLPGDRLVSV; listed as Homo sapiens) [compound 17]”, the “Wells positive [%]” value in experiment [1] is listed as ““++” (20%-49% = ++)”. For the same substance, the Peptide exchange entry in experiment [2] is reported as ““+++” (≧50 = +++)”.

With “19 (FMVDNEAIYDI; listed as Homo sapiens) [compound 19]”, in experiment [1], the “Wells positive [%]” value is ““++” (20%-49% = ++)”. Moreover, the Peptide exchange result in experiment [2] is on record as ““++++” (≧75% = ++++)”.

As to “36 (YVLEDLEVTV; listed as Homo sapiens) [compound 36]”, the “Wells positive [%]” value in experiment [1] is ““+” (<20% = +)”. Moreover, in experiment [2], the Peptide exchange entry is ““++” (≧20% = ++)”.

On to “38 (FLLEDDIHVS; listed as Homo sapiens) [compound 38]”, for which the “Wells positive [%]” value in experiment [1] is reported as ““+” (<20% = +)”. In addition, in experiment [2], the Peptide exchange entry was ““+++” (≧50 = +++)”.

Turning to “40 (TLLVKVFSV; listed as Homo sapiens) [compound 40]”, in experiment [1], the “Wells positive [%]” value is ““++” (20%-49% = ++)”. In addition, the Peptide exchange entry in experiment [2] is given as ““+++” (≧50 = +++)”.

Take “48 (ALAELYEDEV; listed as Homo sapiens) [compound 48]”: the “Wells positive [%]” value in experiment [1] was ““+” (<20% = +)”. In experiment [2], the Peptide exchange entry is recorded as ““+++” (≧50 = +++)”.

Regarding “49 (YLPAVFEEV; listed as Homo sapiens) [compound 49]”, the “Wells positive [%]” value in experiment [1] is given as ““++” (20%-49% = ++)”. The Peptide exchange entry in experiment [2] is listed as ““+++” (≧50 = +++)”.

In the case of “56 (KLYEGIPVLL; listed as Homo sapiens) [compound 56]”, in experiment [1], the “Wells positive [%]” value is ““+” (<20% = +)”. In addition, the Peptide exchange result in experiment [2] is given as ““++++” (≧75% = ++++)”.

With “60 (SLTIDGIYYV; listed as Homo sapiens) [compound 60]”, the “Wells positive [%]” value in experiment [1] is given as ““++++” (> = 70% = ++++)”. Besides, in experiment [2], the Peptide exchange result was ““++++” (≧75% = ++++)”.

As to “61 (FLQGYQLHL; listed as Homo sapiens) [compound 61]”, the “Wells positive [%]” value in experiment [1] was ““++” (20%-49% = ++)”. Moreover, in experiment [2], the Peptide exchange entry is ““++++” (≧75% = ++++)”.

On to “79 (SLFIGEKAVLL; listed as Homo sapiens) [compound 79]”, for which the “Wells positive [%]” value in experiment [1] is ““+” (<20% = +)”. Also, the Peptide exchange entry in experiment [2] is recorded as ““+++” (≧50 = +++)”.

“108 (ALFPGVALLLA; listed as Homo sapiens) [compound 108]”: the “Wells positive [%]” value in experiment [1] is reported as ““++” (20%-49% = ++)”. Further, the Peptide exchange entry in experiment [2] is ““++++” (≧75% = ++++)”.

With “113 (GLLPTPLFGV; listed as Homo sapiens) [compound 113]”, in experiment [1], the “Wells positive [%]” value is listed as ““+” (<20% = +)”. Further, the Peptide exchange entry in experiment [2] is ““+++” (≧50 = +++)”.

As to “118 (KLIDNNINV; listed as Homo sapiens) [compound 118]”, the “Wells positive [%]” value in experiment [1] is on record as ““+” (<20% = +)”. In addition, the Peptide exchange result in experiment [2] was ““+++” (≧50 = +++)”.

For the substance “141 (YLDFSNNRL; listed as Homo sapiens) [compound 141]”, in experiment [1], the “Wells positive [%]” value is recorded as ““+” (<20% = +)”. Also, the Peptide exchange entry in experiment [2] is on record as ““++” (≧20% = ++)”.

For the substance “143 (LLLDITPEI; listed as Homo sapiens) [compound 143]”, the “Wells positive [%]” value in experiment [1] was ““+” (<20% = +)”. In addition, the Peptide exchange result in experiment [2] is listed as ““++++” (≧75% = ++++)”.

With “150 (RLWEEGEELEL; listed as Homo sapiens) [compound 150]”, in experiment [1], the “Wells positive [%]” value is ““+” (<20% = +)”. Also, the Peptide exchange entry in experiment [2] is ““+++” (≧50 = +++)”.

Turning to “152 (ILFEDIFDV; listed as Homo sapiens) [compound 152]”, the “Wells positive [%]” value in experiment [1] is ““++” (20%-49% = ++)”. Besides, in experiment [2], the Peptide exchange entry is recorded as ““+++” (≧50 = +++)”.

“157 (SLNDEVPEV; listed as Homo sapiens) [compound 157]”: the “Wells positive [%]” value in experiment [1] is given as ““+++” (50%-69% = +++)”. The Peptide exchange entry in experiment [2] was ““++” (≧20% = ++)”.

As for “166 (YLNHLEPPV; listed as Homo sapiens) [compound 166]”, the “Wells positive [%]” value in experiment [1] is ““++++” (> = 70% = ++++)”. Further, the Peptide exchange entry in experiment [2] was ““+++” (≧50 = +++)”.

With “191 (LLQEGQALEYV; listed as Homo sapiens) [compound 191]”, the “Wells positive [%]” value in experiment [1] was ““+++” (50%-69% = +++)”. Moreover, the Peptide exchange entry in experiment [2] is listed as ““++” (≧20% = ++)”.

In the case of “198 (KTINKVPTV; listed as Homo sapiens) [compound 198]”, the “Wells positive [%]” value in experiment [1] was ““++” (20%-49% = ++)”. In addition, the Peptide exchange result in experiment [2] is reported as ““+++” (≧50 = +++)”.

“199 (ALQDVPLSSV; listed as Homo sapiens) [compound 199]”: the “Wells positive [%]” value in experiment [1] is on record as ““+” (<20% = +)”. Besides, the Peptide exchange entry in experiment [2] is reported as ““+++” (≧50 = +++)”.

Regarding “215 (QLINHLHAV; listed as Homo sapiens) [compound 215]”, in experiment [1], the “Wells positive [%]” value was ““++” (20%-49% = ++)”. In addition, the Peptide exchange entry in experiment [2] is on record as ““+++” (≧50 = +++)”.

On to “242 (AIAYILQGV; listed as Homo sapiens) [compound 242]”, for which, in experiment [1], the “Wells positive [%]” value is on record as ““+++” (50%-69% = +++)”. In experiment [2], the Peptide exchange entry is recorded as ““++” (≧20% = ++)”.

As to “247 (VLLPNDLLEKV; listed as Homo sapiens) [compound 247]”, the “Wells positive [%]” value in experiment [1] is recorded as ““+” (<20% = +)”. Further, the Peptide exchange result in experiment [2] was ““+++” (≧50 = +++)”.

For “648 (LLWGNAIFL; listed as Homo sapiens) [compound 648]”, in experiment [1], the donors result is recorded as “+++ (50%-69 = +++)” and the wells result is given as “++ (20%-49% = ++)”.

On to “652 (TLWYRAPEV; listed as Homo sapiens) [compound 652]”, for which, in experiment [1], the donors result is listed as “++++ (> = 70% = ++++)” and the wells result is listed as “+++ (50%-69 = +++)”.

“659 (ILFPDIIARA; listed as Homo sapiens) [compound 659]”: in experiment [1], the donors entry was “+++ (50%-69 = +++)” and the wells entry is “+ (<20% = +)”.

Consider “662 (KIQEILTQV; listed as Homo sapiens) [compound 662]”, for which, in experiment [1], the donors result is “+++ (50%-69 = +++)” and the wells entry is reported as “+ (<20% = +)”.

Turning to “663 (KIQEMQHFL; listed as Homo sapiens) [compound 663]”, in experiment [1], the donors entry was “+++ (50%-69 = +++)” and the wells entry was “+ (<20% = +)”.
